For data set [1], the system named is A431 cells. The data set can be described thus: Cellular growth inhibition (sulforhodamine B). The following applies: for A431 HCR (Hypoxic Cytotoxicity Ratio): Table 3.
Data set [2] deals with SW620 cells. The data set can be described thus: Cellular growth inhibition (sulforhodamine B). As to conditions: Table 3; for pIC50: Homo sapiens, SW-620. It is filed as cell-based, Human.
For data set [3], the system named is SKBR3 cells. The data set can be described thus: Cellular growth inhibition (sulforhodamine B). It is filed as cell-based, Human. As to conditions: Table 3; for pIC50: Homo sapiens, SK-BR-3.
Experimental: (§1) Human A431, BT474, SKBR3, SKOV3, SW620, H1975 and HT29 carcinoma cells in log phase exponential growth in alpha minimal essential media (αMEM) containing 5% fetal bovine serum (FBS), were harvested by trypsinisation (1× trypsin/EDTA, Gibco Brl), counted, and seeded into 96 well plates (Nunc) at cell densities ranging from 800-1500 cells/well. Half of the cell samples were seeded into plates that were pre-equilibrated and held in an anoxic environment (90% N2, 5% H2, 5% CO2, 37° Q Anaerobic chamber, Coy Laboratory Products). […] At the end of this period the anoxic plates were recovered from the anaerobic camber and held under normoxia in a standard CO2 incubator (37° C.) for 20 hours. All plates were washed free of compound and cells were allowed to proliferate for a further 4 days in αMEM containing 5% FBS+antibiotics. Cells were fixed in trichloroacteic acid (30 min), washed and stained with sulforhodamine B (SRB, 60 min) prior to washing in acidified water. SRB was solubilised and absorption read at 450 nm to calculate cell densities. Inhibition of proliferation was calculated relative to untreated control wells.
The target of data set [4] is erbB1 (Homo sapiens, UniProt P00533). The data set can be described thus: Inhibition of erbB1 autophosphorylation in EGF-stimulated intact A431 cells (Western blot). In general terms: Immunoblotting shows a protein as a band on a membrane.
Sequence of erbB1 (P00533 25-1210): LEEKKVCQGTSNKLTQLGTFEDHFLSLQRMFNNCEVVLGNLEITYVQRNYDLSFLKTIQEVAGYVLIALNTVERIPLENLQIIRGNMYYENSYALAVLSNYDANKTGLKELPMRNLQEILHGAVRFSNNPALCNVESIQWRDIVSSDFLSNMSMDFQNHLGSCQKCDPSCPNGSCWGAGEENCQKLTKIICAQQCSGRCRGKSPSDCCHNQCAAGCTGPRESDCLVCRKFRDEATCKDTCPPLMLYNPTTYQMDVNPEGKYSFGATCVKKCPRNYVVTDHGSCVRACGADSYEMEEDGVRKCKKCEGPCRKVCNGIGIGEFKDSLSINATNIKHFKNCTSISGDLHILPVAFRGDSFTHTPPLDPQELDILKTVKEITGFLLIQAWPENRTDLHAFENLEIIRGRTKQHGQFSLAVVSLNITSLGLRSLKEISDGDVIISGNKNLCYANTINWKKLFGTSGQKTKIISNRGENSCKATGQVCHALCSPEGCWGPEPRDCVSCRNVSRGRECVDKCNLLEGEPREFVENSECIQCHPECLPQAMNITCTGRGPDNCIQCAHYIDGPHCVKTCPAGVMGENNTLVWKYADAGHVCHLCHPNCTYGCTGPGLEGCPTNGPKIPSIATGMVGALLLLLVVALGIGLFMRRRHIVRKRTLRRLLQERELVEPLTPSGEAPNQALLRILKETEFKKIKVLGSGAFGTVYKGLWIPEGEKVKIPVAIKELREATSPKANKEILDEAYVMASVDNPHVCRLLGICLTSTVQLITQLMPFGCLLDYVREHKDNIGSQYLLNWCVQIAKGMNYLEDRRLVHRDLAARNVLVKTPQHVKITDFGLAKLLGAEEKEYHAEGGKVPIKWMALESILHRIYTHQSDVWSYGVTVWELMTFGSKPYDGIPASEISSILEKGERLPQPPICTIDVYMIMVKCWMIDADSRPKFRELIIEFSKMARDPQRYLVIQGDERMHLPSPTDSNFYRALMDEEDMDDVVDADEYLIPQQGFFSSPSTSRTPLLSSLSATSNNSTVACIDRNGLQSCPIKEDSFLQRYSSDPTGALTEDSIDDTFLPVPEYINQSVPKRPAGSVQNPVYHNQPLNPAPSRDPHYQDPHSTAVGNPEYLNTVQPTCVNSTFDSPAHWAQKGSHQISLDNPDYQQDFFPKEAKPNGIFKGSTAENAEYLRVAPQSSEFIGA
Data set [5] relates to H1975 cells. The data set can be described thus: Cellular growth inhibition (sulforhodamine B). It is filed as cell-based, Human.
In data set [6] the test system is HT29 cells. Put plainly: Cellular growth inhibition (sulforhodamine B). It is filed as cell-based, Human. The following applies: Table 7.
Experimental: as §1
Data set [7] is described as follows: Pulse radiolysis (E(1) and fragmentation rate). It is filed as physicochemical. As to conditions: for kfrag. (fragmentation rate constant upon 1-electron reduction): benzyl-type radical formation; for E (1)/V (one-electron reduction potential): determined against methylviologen. As to the method:
Pulse radiolysis was used to monitor the 1-electron reduction and stability of the compounds in real time. A linear accelerator delivering short pulses of high energy electrons (2-3 Gy in 200 ns of 4 MeV) equipped with a fast spectophotometric detection system was used. (Anderson et al, J. Phys. Chem. A, 101, 9704-9709, 1997). […] The rate of fragmentation was determined by analysing kinetic transients at wavelengths corresponding to the formation of the benzyl-type radical of the trigger moiety. (Bays et al, J. Am. Chem. Soc., 105, 320-324, 1983; Anderson et al, J. Phys. Chem. A, 101, 9704-9709, 1997).
The pulse radiolysis method, for example, measures the equilibrium constant between the radical anions of the prodrugs, formed upon their 1-electron reduction, and reference standards such as viologen and quinone compounds, from which data the E(1) values of the compounds can be calculated. (Meisel and Czapski. J. Phys. Chem., 1975, 79, 1503-1509.) The E(1) values of prodrugs 17-22, 140-145 were measured by the pulse radiolysis method and determined to range between −0.493V and −0.388V (Table 4).
The rate constants for fragmentation, kfrag, of the 1-electron reduced prodrugs can be measured using pulse radiolysis to observe the time-resolved formation of the absorption spectrum of the benzyl-type radical produced upon fragmentation of the radical anion. (Anderson et al, J. Phys. Chem. A, 1997, 101, 9704-9709.) The kfrag values of prodrugs 19, 20, 140, 141 and 143-145 were measured by pulse radiolysis and are presented in Table 4.
Pulse radiolysis was used to monitor the one-electron reduction and stability of prodrug 42 in real time. A linear accelerator delivering short pulses of high energy electrons (2-3 Gy in 200 ns of 4 MeV) equipped with a fast spectophotometric detection system was used. […] The rate of fragmentation was determined by analysing kinetic transients at wavelengths corresponding to the formation of the benzyl-type radical of the trigger moiety. (Bays et al, J. Am. Chem. Soc., 105, 320-324, 1983; Anderson et al, J. Phys. Chem. A, 101, 9704-9709, 1997.)

A short description of data set [8]: Steady state radiolytic reduction by the CO2.− radical with HPLC-MS. It is filed as physicochemical. As to conditions: for Detection of MNA (methyl nitroaromatic) / release of effector following 1-electron reduction: HPLC-MS; for % Loss of prodrug: HPLC-MS at 0.95 reducing equivalents; for release of effector following 1-electron reduction: steady state radiolysis.

The test system of data set [9] is SKOV3 cells. Put plainly: Cellular growth inhibition (sulforhodamine B). It is filed as cell-based, Human. As to conditions: Table 9; for pIC50: Homo sapiens, SK-OV-3.
Experimental: Human A431, H1975 and SKOV3 carcinoma cells in log phase exponential growth in alpha minimal essential media (αMEM) containing 5% fetal bovine serum (FBS), were harvested by trypsinisation (1× trypsin/EDTA, Gibco Brl), counted, and seeded into 96 well plates (Nunc) at cell densities ranging from 800-1500 cells/well. Half of the cell samples were seeded into plates that were pre-equilibrated and held in an anoxic environment (90% N2, 5% H2, 5% CO2, 37° C.; Anaerobic chamber, Coy Laboratory Products). […] At the end of this period the anoxic plates were recovered from the anaerobic camber and held under normoxia in a standard CO2 incubator (37° C.) for 20 hours. All plates were washed free of compound and cells were allowed to proliferate for a further 4 days in αMEM containing 5% FBS+antibiotics. Cells were fixed in trichloroacteic acid (30 min), washed and stained with sulforhodamine B (SRB, 60 min) prior to washing in acidified water. SRB was solubilised and absorption read at 450 nm to calculate cell densities. Inhibition of proliferation was calculated relative to untreated control wells.
[10] abbreviates: Homo sapiens, A-431, 24 h, read-out: Cellular Growth Inhibition IC50 A431 Oxic.
Setting [11] is: Homo sapiens, A-431, read-out: Cellular Growth Inhibition IC50 A431 Anoxic.
Where [12] appears, read: 24 hour exposure entirely oxic, read-out: Cellular Growth Inhibition IC50 SW620 Oxic.
Setting [13] is: first 4 hours anoxic, read-out: Cellular Growth Inhibition IC50 SW620 Anoxic.
The mark [14] stands for this setting: 24 hour exposure entirely oxic, read-out: Cellular Growth Inhibition IC50 SKBR3 Oxic.
Setting [15] is: first 4 hours anoxic, read-out: Cellular Growth Inhibition IC50 SKBR3 Anoxic.
The mark [16] stands for this setting: read-out: Cellular Growth Inhibition IC50 A431 Anoxic, Table 7, initial 4 hours anoxic.
[17] abbreviates: read-out: Cellular Growth Inhibition IC50 A431 Oxic, Table 7, 24 hour exposure oxic.
Setting [18] is: Table 7, 24 hour exposure oxic, read-out: Cellular Growth Inhibition IC50 H1975 Oxic.
[19] abbreviates: Table 7, initial 4 hours anoxic, read-out: Cellular Growth Inhibition IC50 H1975 Anoxic.
The mark [20] stands for this setting: 24 hour exposure oxic, read-out: Cellular Growth Inhibition IC50 HT29 Oxic.
[21] abbreviates: initial 4 hours anoxic, read-out: Cellular Growth Inhibition IC50 HT29 Anoxic.

The structures appear in SMILES notation. pIC50: −log10 of the molar value. Where two headings read alike, the source gives them in different places.

For the compound `Cn1cnc([N+](=O)[O-])c1C[N+]1(C/C=C/C(=O)Nc2ccc3ncnc(Nc4cccc(Br)c4)c3c2)CCOCC1.O=C[O-]`, the melting point – broadly, the temperature, or range, at which the solid turns liquid – is 125 to 129 °C.

As for `O=C(/C=C/CN1CCCCC1)Nc1ccc2ncnc(Nc3cccc(Br)c3)c2c1` [Compound 12, (E)-N-(4-(3-bromophenylamino)quinazolin-6-yl)-4-(piperidin-1-yl)but-2-enamide, reference compound], the pIC50 (as a rule, the IC50 on a negative log10 scale, so that one unit is a factor of ten) is 8.00 in data set [1] (setting [10]); 7.64 in [1] (setting [11]); 5.42 in data set [2] (setting [12]); 5.40 in [2] (setting [13]); 7.36 in data set [3] (setting [14]); 7.55 in data set [3] (setting [15]). The compound also had a pIC50 in data set [4] of 7.35. Besides, the “A431 HCR (Hypoxic Cytotoxicity Ratio)” value in [1] was 0.4 fold. The “SW620 HCR” value in [2] is recorded as 1.0 fold. Moreover, the “SKBR3 HCR” value in [3] worked out at 1.6 fold.

In the case of `O=C(/C=C/CN1CCOCC1)Nc1ccc2ncnc(Nc3cccc(Br)c3)c2c1` [Compound 13, (E)-N-(4-(3-bromophenylamino)quinazolin-6-yl)-4-morpholinobut-2-enamide, reference compound], the pIC50 in data set [1] (setting [10]) is 6.37; in [1] (setting [11]) it was 6.11; in data set [2] (setting [12]), 4.56; in [2] (setting [13]), 4.54; in data set [3] (setting [14]), 5.98; in [3] (setting [15]) it was 6.18. In [4], this compound had a pIC50 of 7.80. Moreover, in [1], the “A431 HCR (Hypoxic Cytotoxicity Ratio)” value was determined as 0.5 fold. Further, the “SW620 HCR” value in [2] is reported as 1.5 fold. Besides, the “SKBR3 HCR” value in [3] is 1.6 fold.

Take `Cn1cnc([N+](=O)[O-])c1C[N+](C)(C)C/C=C/C(=O)Nc1cc2c(Nc3ccc(F)c(Cl)c3)ncnc2cc1O[C@H]1CCOC1.O=C([O-])C(F)(F)F` [Compound 82, (2E)-4-({4-(3-chloro-4-fluoroanilino)-7-[(3S)-tetrahydro-3-furanyloxy]-6-quinazolinyl}amino)-N,N-dimethyl-N-[(1-methyl-4-nitro-1H-imidazol-5-yl)methyl]-4-oxo-2-buten-1-ammonium trifluoroacetate]: the “A431 HCR” value in data set [1] (Table 7) stood at 62 fold. Besides, the negative-log IC50 (pIC50) in data set [1] (setting [16]) is 7.23; in data set [1] (setting [17]), 5.44; in data set [5] (setting [18]) it was 4.19; in [5] (setting [19]), 5.64; in data set [6] (setting [20]), below 4.00; in [6] (setting [21]) it was below 4.52. In addition, in data set [5] (Table 7), the “H1975 HCR” value worked out at 28 fold.

`CC[N+](CC)(CCOc1ccc(Nc2ncc3cc(-c4c(Cl)cccc4Cl)c(=O)n(C)c3n2)cc1)Cc1c([N+](=O)[O-])ncn1C.[Br-]` [Compound 140, 2-(4-{[6-(2,6-dichlorophenyl)-8-methyl-7-oxo-7,8-dihydropyrido[2,3-d]pyrimidin-2-yl]amino}phenoxy)-N,N-diethyl-N-[(1-methyl-4-nitro-1H-imidazol-5-yl)methyl]ethanammonium bromide]: in [1] (Table 7), the “A431 HCR” value is given as 15 fold. Further, the pIC50 is 6.29 in [1] (setting [16]); 5.10 in data set [1] (setting [17]); 5.33 in data set [5] (setting [18]); 6.37 in data set [5] (setting [19]); 5.34 in data set [6] (setting [20]); 6.51 in data set [6] (setting [21]). The “kfrag. (fragmentation rate constant upon 1-electron reduction)” value in [7] is 310 ± 20 s⁻¹. The “E (1)/V (one-electron reduction potential)” value in [7] is reported as −0.429 V. The “Detection of MNA (methyl nitroaromatic)” value in data set [8] is reported as “Yes”. Moreover, the “% Loss of prodrug” value in data set [8] is reported as 92%. Moreover, the “release of effector following 1-electron reduction” value in data set [8] is given as “released their respective effector compounds”. For the same compound, the “H1975 HCR” value in data set [5] (Table 7) is 13 fold. Also, the “HT29 HCR” value in data set [6] worked out at 15 fold.

On to `CC[N+](CC)(CCOc1ccc(Nc2ncc3cc(-c4c(Cl)cccc4Cl)c(=O)n(C)c3n2)cc1)Cc1c([N+](=O)[O-])nc(C)n1C.[Br-]` [Compound 141, 2-(4-{[6-(2,6-dichlorophenyl)-8-methyl-7-oxo-7,8-dihydropyrido[2,3-d]pyrimidin-2-yl]amino}phenoxy)-N-[(1,2-dimethyl-4-nitro-1H-imidazol-5-yl)methyl]N,N-diethylethanammonium bromide], for which the “A431 HCR” value in [1] (Table 7) turned out to be 30 fold. Moreover, the pIC50 in data set [1] (setting [16]) is 6.36; in data set [1] (setting [17]), 4.91; in data set [5] (setting [18]), 5.21; in [5] (setting [19]) it was 6.43; in data set [6] (setting [20]), 5.25; in [6] (setting [21]), 6.49. In data set [7], the “kfrag. (fragmentation rate constant upon 1-electron reduction)” value came out at 1100 ± 100 s⁻¹. In addition, the “E (1)/V (one-electron reduction potential)” value in [7] is −0.456 V. Moreover, in data set [8], the “Detection of MNA (methyl nitroaromatic)” value is given as “Yes”. Further, the “% Loss of prodrug” value in data set [8] came out at 83%. In data set [5] (Table 7), the “H1975 HCR” value stood at 18 fold. In addition, the “HT29 HCR” value in data set [6] is given as 18 fold.

With `CC[N+](CC)(CCNC(=O)c1c(C)[nH]c(/C=C2\C(=O)Nc3ccc(F)cc32)c1C)Cc1c([N+](=O)[O-])ncn1C.O=C([O-])C(F)(F)F` [Compound 144, N,N-diethyl-2-[({5-[(Z)-(5-fluoro-2-oxo-1,2-dihydro-3H-indol-3-ylidene)methyl]-2,4-dimethyl-1H-pyrrol-3-yl}carbonyl)amino]-N-[(1-methyl-4-nitro-1H-imidazol-5-yl)methyl]ethanammonium trifluoroacetate], the “A431 HCR” value in data set [1] (Table 7) worked out at 7 fold. Besides, the negative-log IC50 (pIC50) was 4.62 in data set [1] (setting [16]); 3.84 in data set [1] (setting [17]); 3.69 in data set [5] (setting [18]); 4.24 in data set [5] (setting [19]); 3.53 in data set [6] (setting [20]); 4.97 in [6] (setting [21]). Further, in data set [7], the “kfrag. (fragmentation rate constant upon 1-electron reduction)” value was 470 ± 20 s⁻¹. For the same compound, in data set [7], the “E (1)/V (one-electron reduction potential)” value is given as −0.449 V. Also, the “Detection of MNA (methyl nitroaromatic)” value in [8] is “Yes”. In addition, the “% Loss of prodrug” value in [8] came out at 68%. Moreover, the “release of effector following 1-electron reduction” value in [8] is on record as “released their respective effector compounds”. In addition, the “H1975 HCR” value in data set [5] (Table 7) was 3 fold. Besides, the “HT29 HCR” value in [6] turned out to be 31 fold.

For `CC[N+](CC)(CCNC(=O)c1c(C)[nH]c(/C=C2\C(=O)Nc3ccc(F)cc32)c1C)Cc1c([N+](=O)[O-])nc(C)n1C.[Br-]` [Compound 145, N-[(1,2-dimethyl-4-nitro-1H-imidazol-5-yl)methyl]-N,N-diethyl-2-[({5-[(Z)-(5-fluoro-2-oxo-1,2-dihydro-3H-indol-3-ylidene)methyl]2,4-dimethyl-1H-pyrrol-3-yl}carbonyl)amino]ethanammonium bromide], in data set [7], the “kfrag. (fragmentation rate constant upon 1-electron reduction)” value was determined as 1050 ± 40 s⁻¹ and the “E (1)/V (one-electron reduction potential)” value was −0.456 V. Moreover, in [8], the “Detection of MNA (methyl nitroaromatic)” value is “Yes” and the “% Loss of prodrug” value turned out to be 87%.

Consider `CN(C)C/C=C/C(=O)Nc1cc2c(Nc3ccc(F)c(C(F)(F)F)c3)ncnc2cn1` [Compound 170], for which the pIC50 in [1] (Homo sapiens, A-431, 4 h, read-out: Cellular Growth Inhibition IC50 A431 Anoxic) was 6.60; in data set [1] (setting [10]), 6.62; in data set [9] (24 hour exposure oxic, read-out: Cellular Growth Inhibition IC50 SKOV3 Oxic) it was 6.00; in data set [9] (first 4 hours anoxic, read-out: Cellular Growth Inhibition IC50 SKOV3 Anoxic), 5.74; in data set [5] (Homo sapiens, NCI-H1975, Table 9, 24 hour exposure oxic, read-out: Cellular Growth Inhibition IC50 H1975 Oxic) it was 5.77; in data set [5] (Homo sapiens, NCI-H1975, Table 9, first 4 hours anoxic, read-out: Cellular Growth Inhibition IC50 H1975 Anoxic), 5.86. Besides, in [4], the pIC50 is 8.10. Also, in [1] (Table 9), the “A431 HCR” value turned out to be 1.5 fold. Also, in data set [9], the “SKOV3 HCR” value amounted to 0.7 fold. Also, the “H1975 HCR” value in data set [5] (Table 9) was found to be 1.2 fold.

(Values after patent publication US9073916B2, “Prodrug forms of kinase inhibitors and their use in therapy” (AUCKLAND UNISERVICES LIMITED, priority 2009, dated 2015).)
